What was measured:
[1] = (§1) The drug is tested on Z-030 corresponding to mouse gut metagenome with ENA study accession number: PRJEB37062 and ENA sample accession number: ERS12561829 for biotransformation under anaerobic condition. The drug concentrations were measured over 9 timepoints collected between 0 and 24 hours of incubation by liquid-chromatography-coupled mass spectrometry (LC–MS); conditions: 2 µM
[2] = as §1, with “Z-028” for “Z-030”, “ERS12561827” for “ERS12561829”; conditions: 2 µM
[3] = as §1, with “Z-027” for “Z-030”, “to” for “to mouse gut”, “ERS12561826” for “ERS12561829”; conditions: 2 µM
[4] = as §1, with “Z-019” for “Z-030”, “rat” for “mouse”, “ERS12561818” for “ERS12561829”; conditions: 2 µM
[5] = as §1, with “Z-016” for “Z-030”, “ERS12561815” for “ERS12561829”; conditions: 2 µM
[6] = as §1, with “Z-011” for “Z-030”, “ERS12561811” for “ERS12561829”; conditions: 2 µM
[7] = as §1, with “Z-010” for “Z-030”, “to” for “to mouse gut”, “ERS12561810” for “ERS12561829”; conditions: 2 µM
[8] = as §1, with “Z-004” for “Z-030”, “to” for “to mouse gut”, “ERS12561804” for “ERS12561829”; conditions: 2 µM
[9] = as §1, with “WLS-240” for “Z-030”, “human” for “mouse”, “ERS12561773” for “ERS12561829”; conditions: 2 µM
[10] = as §1, with “WLS-098” for “Z-030”, “human” for “mouse”, “ERS12561754” for “ERS12561829”; conditions: 2 µM
[11] = as §1, with “WLS-038” for “Z-030”, “human” for “mouse”, “ERS12561745” for “ERS12561829”; conditions: 2 µM
[12] = human gut metagenome, 24 h, 2 µM
[13] = human gut metagenome, 24 h, 2 µM; remark: listed apart in the source
[14] = human gut metagenome, 24 h, 2 µM; remark: listed apart in the source
[15] = human gut metagenome, 24 h, 2 µM; remark: listed apart in the source
[16] = human gut metagenome, 24 h, 2 µM; remark: listed apart in the source
[17] = human gut metagenome, 24 h, 2 µM; remark: listed apart in the source
[18] = human gut metagenome, 24 h, 2 µM; remark: listed apart in the source
[19] = human gut metagenome, 24 h, 2 µM; remark: listed apart in the source
[20] = human gut metagenome, 24 h, 2 µM; remark: listed apart in the source
Note: call rule not given here.

Compound | Bacterial Biotransformation [1] | Bacterial Biotransformation [2] | Bacterial Biotransformation [3] | Bacterial Biotransformation [4] | Bacterial Biotransformation [5] | Bacterial Biotransformation [6] | Bacterial Biotransformation [7] | Bacterial Biotransformation [8] | Bacterial Biotransformation [9] | Bacterial Biotransformation [10] | Bacterial Biotransformation [11] | Bacterial Biotransformation [12] | Bacterial Biotransformation [13] | Bacterial Biotransformation [14] | Bacterial Biotransformation [15] | Bacterial Biotransformation [16] | Bacterial Biotransformation [17] | Bacterial Biotransformation [18] | Bacterial Biotransformation [19] | Bacterial Biotransformation [20]
CC[C@@]1(O)C(=O)OCc2c1cc1n(c2=O)Cc2cc3c(CN(C)C)c(O)ccc3nc2-1 [TOPOTECAN] | Compound NOT metabolized | Compound NOT metabolized | Compound NOT metabolized | Compound NOT metabolized | Compound NOT metabolized | Compound NOT metabolized | Compound NOT metabolized | Compound NOT metabolized | Compound NOT metabolized | Compound NOT metabolized | Compound NOT metabolized | Compound NOT metabolized | Compound NOT metabolized | Compound NOT metabolized | Compound NOT metabolized | Compound NOT metabolized | Compound NOT metabolized | Compound NOT metabolized | Compound NOT metabolized | Compound NOT metabolized
COc1cc(C(=O)NCc2ccc(OCCN(C)C)cc2)cc(OC)c1OC [TRIMETHOBENZAMIDE] | Compound NOT metabolized | Compound NOT metabolized | Compound NOT metabolized | Compound NOT metabolized | Compound NOT metabolized | Compound NOT metabolized | Compound NOT metabolized | Compound NOT metabolized | Compound NOT metabolized | Compound NOT metabolized | Compound NOT metabolized | Compound NOT metabolized | Compound NOT metabolized | Compound NOT metabolized | Compound NOT metabolized | Compound NOT metabolized | Compound NOT metabolized | Compound NOT metabolized | Compound NOT metabolized | Compound NOT metabolized
COc1ccc(C(CN(C)C)C2(O)CCCCC2)cc1 (stereo not given) [VENLAFAXINE] | Compound NOT metabolized | Compound NOT metabolized | Compound NOT metabolized | Compound NOT metabolized | Compound NOT metabolized | Compound NOT metabolized | Compound NOT metabolized | Compound NOT metabolized | Compound metabolized | Compound NOT metabolized | Compound NOT metabolized | Compound NOT metabolized | Compound NOT metabolized | Compound NOT metabolized | Compound NOT metabolized | Compound NOT metabolized | Compound NOT metabolized | Compound NOT metabolized | Compound NOT metabolized | Compound NOT metabolized
CCOC(=O)C1=C[C@]2(CC)CCCN3CCc4c(n1c1ccccc41)[C@@H]32 [VINPOCETINE] | Compound NOT metabolized | Compound NOT metabolized | Compound NOT metabolized | Compound NOT metabolized | Compound metabolized | Compound NOT metabolized | Compound metabolized | Compound NOT metabolized | Compound metabolized | Compound metabolized | Compound NOT metabolized | Compound NOT metabolized | Compound metabolized | Compound metabolized | Compound metabolized | Compound metabolized | Compound metabolized | Compound metabolized | Compound metabolized | Compound NOT metabolized
C[C@@H](c1ncncc1F)[C@](O)(Cn1cncn1)c1ccc(F)cc1F [VORICONAZOLE] | Compound NOT metabolized | Compound NOT metabolized | Compound NOT metabolized | Compound NOT metabolized | Compound metabolized | Compound NOT metabolized | Compound metabolized | Compound NOT metabolized | Compound metabolized | Compound metabolized | Compound metabolized | Compound metabolized | Compound metabolized | Compound metabolized | Compound metabolized | Compound metabolized | Compound metabolized | Compound metabolized | Compound metabolized | Compound metabolized
CCN(C(C)=O)c1cccc(-c2ccnc3c(C#N)cnn23)c1 [ZALEPLON] | Compound NOT metabolized | Compound NOT metabolized | Compound NOT metabolized | Compound NOT metabolized | Compound metabolized | Compound NOT metabolized | Compound metabolized | Compound metabolized | Compound metabolized | Compound metabolized | Compound metabolized | Compound NOT metabolized | Compound metabolized | Compound metabolized | Compound metabolized | Compound metabolized | Compound metabolized | Compound metabolized | Compound metabolized | Compound metabolized
